Laboratory results published in PMC8063180 (Cell Reports. Physical Science, 2021).
≈ marks a conversion by molar mass, not a printed value. Peptide text beside a SMILES is read from it.

Assays:
physchem = format: physicochemical; conditions: for Fold lower critical concentration compared with AFA: at the highest measured temperature
[1] = format: physicochemical; conditions: for Effect of polyphenols (EGCG, TA, RA) on critical soluble concentration: increasing inhibitor ratio, dose-dependent
Dynamic light scattering = format: physicochemical; conditions: pH 6.8, room temperature
[2] = aqueous solution; cited from earlier work
[3] = pH 6.8, Water solubility (critical soluble concentration), pure water, room temperature, pH 6.8
[4] = water, room temperature, pH 6.8

Compound `NCC(=O)N[C@@H](Cc1ccccc1)C(=O)N[C@@H](Cc1ccccc1)C(=O)O` [GFF, reference compound] (H-Gly-Phe-Phe-OH) has a solubility (physchem; [3]) of 14.5 mM (≈ 5.36 mg/mL).
With `C[C@H](N)C(=O)N[C@@H](C)C(=O)N[C@@H](Cc1ccccc1)C(=O)O` [AAF] (H-Ala-Ala-Phe-OH) the “Fold lower critical concentration compared with AFA” value (physchem) was ~6 fold, the solubility at 2 min (physchem; [3]) was 105 mM (≈ 32.3 mg/mL) and the “Effect of polyphenols (EGCG, TA, RA) on critical soluble concentration” value [1] was “significant increase”. The “Fold increase of solubility by TA” value ([1]; peptide:TA 1:2, versus no inhibitor) was 3 fold, the DLS cluster size (Dynamic light scattering; 100 mM in water) was “approximately 4,000 nm” and the DLS cluster size (Dynamic light scattering; above 40 mM in water) was “remained constant”.
For `CC(C)C[C@H](N)C(=O)N[C@@H](Cc1ccccc1)C(=O)O` [LF, reference compound] (H-Leu-Phe-OH), the solubility (physchem; [3]) was 19.4 mM (≈ 5.4 mg/mL).
`N[C@@H](Cc1ccccc1)C(=O)N[C@@H](Cc1ccccc1)C(=O)O` [FF, reference compound] (H-Phe-Phe-OH) gave a solubility (physchem; [3]) of 8.1 mM (≈ 2.53 mg/mL).
For `C[C@H](NC(=O)[C@H](C)NC(=O)[C@@H](N)Cc1ccccc1)C(=O)O` [FAA] (H-Phe-Ala-Ala-OH), the “Fold lower critical concentration compared with AFA” value (physchem) was ~15 fold, the solubility (physchem; [3]) was 42 mM (≈ 12.9 mg/mL) and the “Effect of polyphenols (EGCG, TA, RA) on critical soluble concentration” value [1] was “significant increase”. For the same compound, the DLS cluster size (Dynamic light scattering; above 40 mM in water) was “approximately 2000 nm”.
With `C[C@H](N)C(=O)N[C@@H](Cc1ccccc1)C(=O)N[C@@H](Cc1ccccc1)C(=O)O` [AFF, reference compound] (H-Ala-Phe-Phe-OH) the solubility (physchem; [3]) was 98.3 mM (≈ 37.7 mg/mL) and the “Fold higher solubility compared with GFF” value (physchem; [4]) was 6 fold.
For `N[C@@H](Cc1ccccc1)C(=O)N[C@@H](Cc1ccccc1)C(=O)N[C@@H](Cc1ccccc1)C(=O)O` [FFF, reference compound] (H-Phe-Phe-Phe-OH), the solubility (physchem; [3]) was 0.5 mM (≈ 0.23 mg/mL).
`C[C@H](N)C(=O)N[C@@H](Cc1ccccc1)C(=O)N[C@@H](C)C(=O)O` [AFA, Ala-Phe-Ala] (H-Ala-Phe-Ala-OH) gave a solubility (physchem; Water solubility, water, 70°C) of 702 mM (≈ 216 mg/mL), a solubility (physchem; Water solubility, water, 90°C) of 720 mM (≈ 221 mg/mL) and a solubility (physchem; Water solubility, water, near the boiling point of water) of 710 mM (≈ 218 mg/mL). For the same compound, the Minimal critical concentration (physchem; around pH 6–7, room temperature) was 668 mM, the solubility (physchem; [3]) was 672 mM (≈ 207 mg/mL) and the Water solubility (physchem; pH approaching the pKa value of either terminus, room temperature) was 672 mM. The “Fold higher solubility compared with AAF” value (physchem; [4]) was 6 fold, the “Fold higher solubility compared with FAA” value (physchem; [4]) was 15 fold and the “Effect of inhibitors (EGCG, TA, RA) on solubility” value ([1]; molar ratios 1:0.1–1:0.3) was “unable to significantly alter”. The DLS cluster size (Dynamic light scattering; 100 mM in water) was “persisted”, the DLS cluster size (Dynamic light scattering; above 40 mM in water) was “remained constant” and the Reported critical concentration [2] was “up to 10 mM”.
Compound `CC(C)C[C@H](NC(=O)[C@@H](N)Cc1ccccc1)C(=O)O` [FL, reference compound] (H-Phe-Leu-OH) has a solubility (physchem; [3]) of 28.3 mM (≈ 7.88 mg/mL).
Compound `O=C(O)[C@H](Cc1ccccc1)NC(=O)[C@H](Cc1ccccc1)NC(=O)[C@@H]1CCCN1` [PFF, reference compound] (H-Pro-Phe-Phe-OH) has a solubility (physchem; [3]) of 2.6 mM (≈ 1.06 mg/mL).
